Test results: US20040220164A1, “Triaza compound immunoregulatory agents” (priority 2001, published 2004)
Converted amounts (≈) assume the structure as drawn. Read-outs that look alike come from different tables or passages of the source.

Tests used:
[1] = target: T1, CD4 (Homo sapiens, UniProt P01730); test: CD4 down-modulation, flow cytometry with FITC-conjugated anti-CD4 (SK3) mAb, SupT1 cells; type: cell-based; set-up: To study the effect of the CADA derivatives on surface CD4 antigen expression, MT-4 and SupT1 cells were incubated; endogenous in cells; host or cells: MT-4, SupT1, PBMC; settings: for IC50: day 4, read-out: IC50 CD4 (50% inhibition of extracellular CD4 expression) (converted)
Protocol: (§1) Flow Cytometric Analyses. To study the effect of the CADA derivatives on surface CD4 antigen expression, MT-4 and SupT1 cells were incubated with a serial 5-fold dilution of the compounds (50, 10, 2, 0.4 and 0.08 μg/ml) or medium at 37° C. Cell surface CD4 antigen expression was analyzed at day 3 (MT-4) or day 4 (SupT1). Briefly, after washing with phosphate-buffered saline (PBS) containing 2% fetal calf serum (FCS), cells were incubated with FITC-conjugated anti-CD4 (SK3) mAb for 30 min at 4° C. As a negative control for a specific background staining, cells were stained in parallel with Simultest Control γ1/γ^2a (Becton Dickinson). Then the cells were washed, fixed with 1% formaldehyde and analyzed by flow cytometry in a FACScalibur (Becton Dickinson, San Jose, Calif., USA). Data were acquired and analyzed with CellQuest software (Becton Dickinson). For the calculation of the CD4 receptor expression, the mean fluorescence intensity (MFI) of each sample was expressed as percentage of the MFI of control cells (after subtracting the MFI of the isotype control). Finally, the IC50 value of the compounds (i.e., the concentration of the compound required for 50% inhibition of extracellular CD4 expression) was calculated.

[2] = target: T1, CD4; test: CD4 down-modulation, flow cytometry with FITC-conjugated anti-CD4 (SK3) mAb, MT-4 cells; type: cell-based; set-up: To study the effect of the CADA derivatives on surface CD4 antigen expression, MT-4 and SupT1 cells were incubated; endogenous in cells; host or cells: MT-4, SupT1, PBMC; settings: for IC50: MT-4 cells, day 3, read-out: IC50 CD4 (50% inhibition of extracellular CD4 expression) (converted); for CD4 down-modulating activity compared with CADA or parent analog (in words): structure-activity discussion of Table 5 (MT-4 and SupT1 cells); for CD4 down-modulating activity, fold less active than CADA: compared to CADA, MT-4 cells (stated for some compounds)
Protocol: as §1, with “Cell surface CD4 antigen expression was analyzed at day 3 (MT-4) or day 4 (SupT1).” left out

[3] = test system: HIV-1 strain NL4.3; test: Anti-HIV-1 assay in MT-4 cells (p24 Ag ELISA, Example 3); type: cell-based
Protocol: Antiviral Assays. For HIV-1, MT-4 cells were infected with the HIV-1 strain NL4.3. Briefly, five-fold dilutions of the compounds (in 100 μl) were added to 96-well flat bottom plates (Iwaki, Japan). Then, to each well, 7.5×10^4 MT-4 cells were added in 50 μl medium, followed by 50 μl of diluted HIV-1 stock (strain NL4.3). Cytopathic effect (CPE) induced by the virus was checked regularly microscopically. When strong CPE was observed (after 3 to 5 days of incubation) in untreated HIV-1 infected cells, the supernatant was collected, stored at −20° C. and analyzed for HIV-1 core antigen by p24 Ag ELISA (NEN™, PerkinElmer Life Sciences, Boston, Mass.). Finally, the IC50 value of the compounds (i.e., the concentration of the compound required for 50% reduction of HIV infection as measured by viral p24 antigen level in the supernatant of infected MT-4 cells) was calculated.

[4] = Cytotoxicity assay (trypan blue exclusion, propidium iodide); type: cell-based, human; settings: human, read-out: CC50 (50% cytotoxic concentration)
Protocol: Cytotoxicity Assay. Cellular toxicity of the compounds was measured by trypan blue exclusion and also by Propidium Iodide by flow cytometry after 3 or 4 days of incubation, in parallel with the CD4 antigen expression. The CC50 value of each CADA analog is the concentration (in μg/ml) required to reduce the viability of the cells by 50%.

[5] = test system: HHV-7 (KHR strain); test: Anti-HHV-7 assay in SupT1 cells (antigen expression, flow cytometry, Example 3); type: cell-based
Protocol: For HHV-7, five-fold dilutions of the compounds were added in 500 μl culture medium in 24-well flat bottom plates (Iwaki, Japan), whereupon 2×10^5 SupT1 cells were added in 400 μl culture medium. After 30 min incubation at room temperature, 100 μl of HHV-7 stock was added to each well. HHV-7-infected and mock-infected SupT1 cells were cultured in a final volume of 1 ml medium in the absence of the compounds. On day 4, half of the medium and the cells were replaced and fresh medium without new compound was added. This procedure was repeated every 2 or 3 days. The CPE was checked regularly microscopically. When CPE was observed, the HHV-7 antigen expression was monitored by flow cytometry, as described previously (Zhang, Y. et al. (1999) “Selective activity of various antiviral compounds against HHV-7 infection Antiviral Res. 43, 23-35.)

[6] = target: T1, CD4; test: Cell surface CD4 expression by flow cytometry (anti-CD4 mAb Leu3a-PE); type: cell-based; set-up: To study the effect of the CADA derivatives on surface CD4 antigen expression, MT-4 and SupT1 cells were incubated; endogenous in cells; host or cells: MT-4, SupT1, PBMC
Protocol: FIGS. 2A-2C. Surface CD4 expression in MT-4 cell line, SupT1 cell line and PBMCs after incubation with CADA hydrochloride (3.2 or 16 μM) for 1 and 4 days. (A) Cell surface CD4 expression of control MT-4 cells and MT-4 cells treated with CADA (3.2 μM) for 1 day or 4 days. (B) Cell surface CD4 expression of control SupT1 cells and SupT1 cells treated with CADA (3.2 μM) for 1 day or 4 days. (C) Cell surface CD4 expression of control PBMCs and PBMCs treated with CADA (16 μM) for 1 day or 4 days. The cells were stained with anti-CD4 mAb (Leu3a-PE). Percentages of fluorescent cells and MFI (mean fluorescence intensity) are indicated in each histogram.
FIG. 4. Comparison of the effects on CD4 modulation by ATA (24 μM), CADA hydrochloride (16 μM) and PMA (8 nM) in SupT1 cells after incubation with the compounds analyzed after 20 minutes, 4 hours, 1 day and 4 days.
Cells were incubated with CADA hydrochloride and the CD4 expression on the cell surface was analyzed. […] In peripheral blood mononuclear cells (PBMCs), the percentage of CD4 expression decreased to 0.2% after incubation with CADA (16 μM) for 4 days (FIG. 2).
Expression of various other surface antigens was also examined in MT-4 cells, SupT1 cells and PBMCs after incubation with CADA (16 μM) or CADA-free medium at 37° C. for 4 days. After washing with phosphate-buffered saline (PBS) containing 2% FCS(fetal calf serum), the cells were incubated with mAb (as indicated in Table 1) for 20 min at 4° C. Then the cells were washed, fixed with 1% formaldehyde and analyzed by flow cytometry. All mAbs were purchased from Becton-Dickinson (Erembodegem, Belgium).
CADA was compared with ATA and PMA with regard to their down-modulating effects. […] At day 4, the CD4 expression in SupT1 cells treated with CADA reduced to 1.2%.

[7] = Human immunodeficiency virus 1, MT4, MT-4 cells, read-out: IC50 HIV-1 (NL4.3), p24 Ag ELISA
[8] = SUP-T1, SupT1 cells, read-out: IC50 HHV-7 (50% reduction of HHV-7 antigen expression)

Structure (SMILES) | IC50 [1] [µM] | IC50 [2] [µM] | CD4 down-modulating activity compared with CADA or parent analog (in words) [2] | IC50 [3, 7] [µg/mL] | IC50 [5, 8] [µg/mL] | CD4 down-modulating activity, fold less active than CADA [2] [fold] | down-regulation of CD4 expression (in words) [6] | CD4 down-regulation (in words) [1] | CC50 ([4]; MT-4 cells) [µg/mL] | CC50 ([4]; SupT1 cells) [µg/mL] | IC50 ([3]; Human immunodeficiency virus 1, MT4, read-out: IC50 HIV-1 (NL4.3), p24 Ag ELISA) [µg/mL] | IC50 ([5]; SUP-T1, read-out: IC50 HHV-7 (50% reduction of HHV-7 antigen expression)) [µg/mL]
C=C1CN(S(C)(=O)=O)CCCN(Cc2ccccc2)CCCN(S(C)(=O)=O)C1 [MFS105] | > 116 | > 116 | significant loss | > 50 | > 50 |  |  |  | > 50 | > 50 |  | 
C=C1CN(S(=O)(=O)c2ccc(COCCCC)cc2)CCCN(Cc2ccccc2)CCCN(S(=O)(=O)c2ccc(COCCCC)cc2)C1 [MFS117] | > 68.9 | > 13.8 | significant loss | ≥ 10 | 0.92 (≈ 1.27 µM) |  |  |  | 18.9 (≈ 26 µM) | > 50 |  | 
Cc1ccc(S(=O)(=O)N2CCCN(Cc3ccccc3)CCCN(S(=O)(=O)c3ccc(C)cc3)CCC2)cc1 [MFS-SC001] | 7.18 | 12.4 |  | > 10 | 0.65 (≈ 1.14 µM) | 20 |  |  | 23.1 (≈ 40.5 µM) | 32.2 (≈ 56.5 µM) |  | 
C=C1CN(S(=O)(=O)c2ccc(C)cc2)CCCN(CC2CC=CCC2)CCCN(S(=O)(=O)c2ccc(C)cc2)C1 (stereo not drawn) [QJ023] | 0.615 | 0.444 | slightly enhanced | 0.29 (≈ 0.495 µM) | 0.1 (≈ 0.171 µM) |  | down-regulate CD4 expression |  | 22.2 (≈ 37.9 µM) | 28.9 (≈ 49.3 µM) |  | 
C=C1CN(S(=O)(=O)c2ccc(C)cc2)CCCN(Cc2ccc[nH]2)CCCN(S(=O)(=O)c2ccc(C)cc2)C1 [QJ027] | 10.5 | 6.78 |  |  |  | 10 | down-regulate CD4 expression |  | 20.2 (≈ 35.4 µM) | 21.7 (≈ 38 µM) | 4.4 (≈ 7.71 µM) | 3.1 (≈ 5.43 µM)

Further lines, with some results ahead:

IC50 [1] [µM] | IC50 [2] [µM] | CD4 down-modulating activity compared with CADA or parent analog (in words) [2] | IC50 [3, 7] [µg/mL] | IC50 [5, 8] [µg/mL] | CD4 down-modulating activity, fold less active than CADA [2] [fold] | down-regulation of CD4 expression (in words) [6] | CD4 down-regulation (in words) [1] | Structure (SMILES) | CC50 ([4]; MT-4 cells) [µg/mL] | CC50 ([4]; SupT1 cells) [µg/mL] | IC50 ([3]; Human immunodeficiency virus 1, MT4, read-out: IC50 HIV-1 (NL4.3), p24 Ag ELISA) [µg/mL] | IC50 ([5]; SUP-T1, read-out: IC50 HHV-7 (50% reduction of HHV-7 antigen expression)) [µg/mL]
5.73 | 4.83 | somewhat in between | 2 (≈ 3.75 µM) | 0.91 (≈ 1.7 µM) |  | down-regulate CD4 expression |  | C=C1CN(S(=O)(=O)c2ccc(C)cc2)CCCN(CCC)CCCN(S(=O)(=O)c2ccc(C)cc2)C1 [QJ029] | 20.7 (≈ 38.8 µM) | 22.2 (≈ 41.6 µM) |  | 
12.4 | 4.41 |  | 2.36 (≈ 4.05 µM) | 1.59 (≈ 2.73 µM) | 9 | down-regulate CD4 expression |  | C=C1CN(S(=O)(=O)c2ccc(C)cc2)CCCN(Cc2ccncc2)CCCN(S(=O)(=O)c2ccc(C)cc2)C1 [QJ030] | 21.3 (≈ 36.5 µM) | > 50 |  | 
> 18.7 | 11.4 |  | 5.55 (≈ 10.4 µM) | 1.4 (≈ 2.62 µM) | 17 | down-regulate CD4 expression | not active | C=C1CN(S(=O)(=O)c2ccc(C)cc2)CCCN(C(C)C)CCCN(S(=O)(=O)c2ccc(C)cc2)C1 [QJ035] | 22.2 (≈ 41.6 µM) | 23 (≈ 43.1 µM) |  | 
3.27 | 2.12 | somewhat in between | 0.95 (≈ 1.73 µM) | 1.19 (≈ 2.17 µM) |  | down-regulate CD4 expression |  | C=C1CN(S(=O)(=O)c2ccc(C)cc2)CCCN(C(C)CC)CCCN(S(=O)(=O)c2ccc(C)cc2)C1 (stereo not drawn) [QJ036] | 20.9 (≈ 38.2 µM) | > 50 |  | 
1.23 | 0.943 |  | 0.48 (≈ 0.854 µM) | 0.13 (≈ 0.231 µM) |  | down-regulate CD4 expression |  | C=C1CN(S(=O)(=O)c2ccc(C)cc2)CCCN(CC(C)CC)CCCN(S(=O)(=O)c2ccc(C)cc2)C1 (stereo not drawn) [QJ037] | 22.1 (≈ 39.3 µM) | 24 (≈ 42.7 µM) |  | 
0.854 | 0.73 |  | 0.31 (≈ 0.552 µM) | 0.34 (≈ 0.605 µM) |  | down-regulate CD4 expression |  | C=C1CN(S(=O)(=O)c2ccc(C)cc2)CCCN(CCC(C)C)CCCN(S(=O)(=O)c2ccc(C)cc2)C1 [QJ038] | 19.4 (≈ 34.5 µM) | 8.4 (≈ 15 µM) |  | 
